The results in this text go back to patent US20050209278A1, “Piperidinyl- and piperazinyl-sulfonylmethyl hydroxamic acids and their use as protease inhibitors” (priority 2002, published 2005).

Common to all, as to assay type: biochemical
Test [1] concerns the target T1, MMP-2 (Homo sapiens, UniProt P08253).
T1 construct: made in house; host or cells: MMP-2-transfected p2AHT2 cells
T1 sequence (P08253 110-660): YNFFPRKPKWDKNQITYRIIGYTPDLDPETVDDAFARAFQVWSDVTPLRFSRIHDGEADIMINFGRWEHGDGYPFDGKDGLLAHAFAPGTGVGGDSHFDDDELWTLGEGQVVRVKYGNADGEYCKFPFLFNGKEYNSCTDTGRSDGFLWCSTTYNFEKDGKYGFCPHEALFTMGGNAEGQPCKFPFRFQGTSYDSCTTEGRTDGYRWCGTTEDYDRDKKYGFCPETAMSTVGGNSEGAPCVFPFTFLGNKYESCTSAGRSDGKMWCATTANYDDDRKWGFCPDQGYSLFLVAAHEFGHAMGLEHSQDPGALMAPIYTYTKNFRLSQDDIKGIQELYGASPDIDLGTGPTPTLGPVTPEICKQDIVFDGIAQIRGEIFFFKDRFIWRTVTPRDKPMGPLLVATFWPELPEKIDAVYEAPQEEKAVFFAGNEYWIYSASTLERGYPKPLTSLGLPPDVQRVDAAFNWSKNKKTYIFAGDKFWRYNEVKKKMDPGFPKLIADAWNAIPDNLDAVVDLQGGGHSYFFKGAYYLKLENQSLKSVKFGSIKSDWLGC
The experiment in a line: MMP-2 inhibition (in vitro Ki).

The target of test [2] is T2, MMP-9 (Homo sapiens, UniProt P14780).
T2 construct: made in house; host or cells: MMP-9-transfected HT1080 cells (spent media)
Briefly: MMP-9 inhibition (in vitro Ki).

Test [3] deals with T3, MMP-1 (Homo sapiens, UniProt P03956).
T3 construct: made in house; host or cells: MMP-1-transfected HT-1080 cells (spent media)
T3 sequence (P03956 100-469): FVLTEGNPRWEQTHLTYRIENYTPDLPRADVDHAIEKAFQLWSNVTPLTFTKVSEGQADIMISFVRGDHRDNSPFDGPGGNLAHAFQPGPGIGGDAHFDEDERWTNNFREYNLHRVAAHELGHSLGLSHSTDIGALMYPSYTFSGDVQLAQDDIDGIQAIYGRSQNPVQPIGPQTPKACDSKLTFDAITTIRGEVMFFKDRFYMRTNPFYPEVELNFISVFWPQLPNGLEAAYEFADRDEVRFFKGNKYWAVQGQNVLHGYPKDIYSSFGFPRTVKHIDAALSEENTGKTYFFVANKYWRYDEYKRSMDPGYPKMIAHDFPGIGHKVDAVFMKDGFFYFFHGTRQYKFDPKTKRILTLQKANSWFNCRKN
Briefly: MMP-1 inhibition (in vitro Ki).

Test [4] deals with T4, MMP-14 (Homo sapiens, UniProt P50281).
T4 construct: The catalytic domain enzyme was expressed in E. coli inclusion bodies, solubilized in urea; made in house
Briefly: MMP-14 inhibition (in vitro Ki).

The target of test [5] is T5, MMP-13 (Homo sapiens, UniProt P45452).
T5 construct: made in house; host or cells: baculovirus / insect cells
Briefly: MMP-13 inhibition (in vitro Ki).

The mark [6] stands for this setting: Table 9, read-out: MMP-2 Ki (IC-50).
[7] abbreviates: Table 9, read-out: MMP-9 Ki (IC-50).
The mark [8] stands for this setting: Table 9, read-out: MMP-1 Ki (IC-50).
Where [9] appears, read: Table 9, read-out: MMP-14 Ki (IC-50).
Where [10] appears, read: Table 9, read-out: MMP-13 Ki (IC-50).

Like-named read-outs stand apart in the source and are kept apart here.

T2 sequence (P14780 107-707 limits assumed): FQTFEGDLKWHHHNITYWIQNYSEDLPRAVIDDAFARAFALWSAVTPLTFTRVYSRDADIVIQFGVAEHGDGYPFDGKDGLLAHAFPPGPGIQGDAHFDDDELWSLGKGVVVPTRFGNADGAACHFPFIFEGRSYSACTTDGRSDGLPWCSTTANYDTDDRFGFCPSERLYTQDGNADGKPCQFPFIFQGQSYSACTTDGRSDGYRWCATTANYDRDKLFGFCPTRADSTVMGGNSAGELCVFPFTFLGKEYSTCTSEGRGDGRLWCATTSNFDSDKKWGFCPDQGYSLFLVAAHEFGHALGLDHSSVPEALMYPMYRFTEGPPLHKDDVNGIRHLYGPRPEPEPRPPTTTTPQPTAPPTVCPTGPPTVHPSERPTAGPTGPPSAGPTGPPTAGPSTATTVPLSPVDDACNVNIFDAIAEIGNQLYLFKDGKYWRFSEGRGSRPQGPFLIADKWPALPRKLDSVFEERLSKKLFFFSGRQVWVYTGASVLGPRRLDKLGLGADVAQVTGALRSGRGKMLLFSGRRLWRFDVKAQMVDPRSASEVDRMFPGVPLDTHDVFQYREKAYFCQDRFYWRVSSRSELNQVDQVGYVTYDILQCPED

In general, Ki refers to a dissociation constant, usually derived from enzyme kinetics or from competition with a known ligand. Consider `O=C(CCCCC1CCN(S(=O)(=O)C2(C(=O)NO)CCOCC2)CC1)N1Cc2ccccc2C1` [Example A87], for which the inhibitory constant (Ki) in test [1] (setting [6]) is 17.2 nM; in test [2] (setting [7]), 107 nM; in test [3] (setting [8]), 927 nM; in test [4] (setting [9]), above 10000 nM; in test [5] (setting [10]), 0.01 nM.
Take `COCCC(C(=O)NO)S(=O)(=O)N1CCC(Oc2ccc(SC(F)(F)F)cc2)CC1` (stereo not drawn) [Example B3, N-hydroxy-4-methoxy-2-[(4-{4-[(trifluoromethyl)thio]phenoxy}piperidin-1-yl)sulfonyl]butanamide]: the Ki in test [1] (Table 10, read-out: MMP-2 Ki) is 0.791 nM; in test [2] (Table 10, read-out: MMP-9 Ki), 0.332 nM; in test [3] (Table 10, read-out: MMP-1 Ki) it was above 10000 nM; in test [4] (Table 10, read-out: MMP-14 Ki), 1950 nM; in test [5] (Table 10, read-out: MMP-13 Ki) it was 0.985 nM.
`CCCCCCOCC1CCN(S(=O)(=O)C2(C(=O)NO)CCOCC2)CC1` [Example A41, 4-(4-hexyloxymethyl-piperidine-1-sulfonyl)-tetrahydro-pyran-4-carboxylic Acid Hydroxyamide]: the Ki is 8.38 nM in test [1] (Table 8, read-out: MMP-2 Ki); 1.79 nM in test [2] (Table 8, read-out: MMP-9 Ki); above 10000 nM in test [3] (Table 8, read-out: MMP-1 Ki); 7210 nM in test [4] (Table 8, read-out: MMP-14 Ki); 7.95 nM in test [5] (Table 8, read-out: MMP-13 Ki).
Turning to `CCCC(=O)c1ccc(C2CCN(S(=O)(=O)C3(C(=O)NO)CCOCC3)CC2)nc1` [Example A159], the inhibition constant Ki in test [1] (setting [6]) is 2.65 nM; in test [2] (setting [7]), 3.99 nM; in test [3] (setting [8]), 1840 nM; in test [4] (setting [9]) it was 8580 nM; in test [5] (setting [10]), 1.91 nM.
For the molecule `CCCN(C(=O)CCCC1CCN(S(=O)(=O)C2(C(=O)NO)CCOCC2)CC1)c1ccccc1` [Example A145], the Ki in test [1] (setting [6]) was 26.3 nM; in test [2] (setting [7]), 15.2 nM; in test [3] (setting [8]), above 10000 nM; in test [4] (setting [9]) it was 6520 nM; in test [5] (setting [10]) it was 23 nM.
Take `O=C(NO)C1(S(=O)(=O)N2CCC(CCCCOCCCC(F)(F)F)CC2)CCOCC1` [Example A40, 4-{4-[4-(4,4,4-trifluoro-butoxy)-butyl]-piperidine-1-sulfonyl}-tetrahydro-pyran-4-carboxylic Acid Hydroxyamide]: the Ki in test [1] (Table 8, read-out: MMP-2 Ki) is 6.99 nM; in test [2] (Table 8, read-out: MMP-9 Ki), 46.4 nM; in test [3] (Table 8, read-out: MMP-1 Ki) it was 4260 nM; in test [4] (Table 8, read-out: MMP-14 Ki), 3420 nM; in test [5] (Table 8, read-out: MMP-13 Ki), 0.6 nM.
With `O=C(CCCCC1CCN(S(=O)(=O)C2(C(=O)NO)CCOCC2)CC1)N1CC2CCCCC2C1` (stereo not drawn) [Example A88], the Ki turned out to be 38 nM in test [1] (setting [6]); 50.7 nM in test [2] (setting [7]); 2780 nM in test [3] (setting [8]); 5360 nM in test [4] (setting [9]); 2.01 nM in test [5] (setting [10]).
For `O=C(/C=C/C=C/C1CCN(S(=O)(=O)C2(C(=O)NO)CCOCC2)CC1)N1CCCCC1` [Example A78], the inhibition constant Ki in test [1] (setting [6]) was 172 nM; in test [2] (setting [7]), 428 nM; in test [3] (setting [8]), 2420 nM; in test [4] (setting [9]), above 10000 nM; in test [5] (setting [10]) it was 0.52 nM.
Turning to `CC(C)(C)CCOC1CCN(S(=O)(=O)C2(C(=O)NO)CCOCC2)CC1` [Example A36E], the inhibition constant (Ki) in test [1] (Table 8, read-out: MMP-2 Ki) is 112 nM; in test [2] (Table 8, read-out: MMP-9 Ki) it was 365 nM; in test [3] (Table 8, read-out: MMP-1 Ki), above 10000 nM; in test [4] (Table 8, read-out: MMP-14 Ki) it was 4250 nM; in test [5] (Table 8, read-out: MMP-13 Ki), 65.8 nM.
As for `CC(F)(F)Cc1ccc(C2CCN(S(=O)(=O)C3(C(=O)NO)CCOCC3)CC2)nc1` [Example A152], the Ki in test [1] (setting [6]) is 2.36 nM; in test [2] (setting [7]), 9.85 nM; in test [3] (setting [8]), above 10000 nM; in test [4] (setting [9]), 4330 nM; in test [5] (setting [10]), 5.25 nM.
Taken in the same sequence, the figures for `CCn1nnc(-c2ccc(N3CCN(S(=O)(=O)C4(C(=O)NO)CCOCC4)CC3)cc2)n1` [Example A186] were 0.23 nM, 0.55 nM, 924 nM, 421 nM and 0.21 nM.
On to `O=C(NO)C1(S(=O)(=O)N2CCC(CCCOCCCC(F)(F)F)CC2)CCOCC1` [Example A36J], for which the Ki in test [1] (Table 8, read-out: MMP-2 Ki) was 7.8 nM; in test [2] (Table 8, read-out: MMP-9 Ki), 10.3 nM; in test [3] (Table 8, read-out: MMP-1 Ki), above 10000 nM; in test [4] (Table 8, read-out: MMP-14 Ki), 6550 nM; in test [5] (Table 8, read-out: MMP-13 Ki), 4.38 nM.
On to `O=C(NO)C1(S(=O)(=O)N2CCC(c3ccc(CCC(F)(F)C(F)(F)F)cn3)CC2)CCN(c2ncccn2)CC1` [Example A178], for which the Ki was 0.881 nM in test [1] (setting [6]); 0.596 nM in test [2] (setting [7]); above 10000 nM in test [3] (setting [8]); 1950 nM in test [4] (setting [9]); 0.437 nM in test [5] (setting [10]).
For the molecule `O=C(NO)C1(S(=O)(=O)N2CCC(c3ccc(CCc4ccsc4)cn3)CC2)CCOCC1` [Example A95], the inhibition constant (Ki) in test [1] (setting [6]) was found to be 2.13 nM; in test [2] (setting [7]) it was 7.97 nM; in test [3] (setting [8]), 7630 nM; in test [4] (setting [9]), 2270 nM; in test [5] (setting [10]), 0.376 nM.
Taken in the same sequence, the figures for `O=C(NO)C1(S(=O)(=O)N2CCC(c3ccc(C#CCCO)cn3)CC2)CCOCC1` [Example A133] were 0.77 nM, 1.07 nM, 1900 nM, 3870 nM and 1.12 nM.
Taken in the same sequence, the figures for `CN(Cc1ccco1)C(=O)CCCC1CCN(S(=O)(=O)C2(C(=O)NO)CCOCC2)CC1` [Example A141] were 219 nM, 348 nM, 6900 nM, above 10000 nM and 3.4 nM.
Taken in the same sequence, the figures for `CN(C(=O)CCCC1CCN(S(=O)(=O)C2(C(=O)NO)CCOCC2)CC1)c1ccccc1` [Example A143] were 686 nM, 389 nM, above 10000 nM, above 10000 nM and 50.8 nM.
Take `CC(C)CCc1cnc(C2CCN(S(=O)(=O)C3(C(=O)NO)CCOCC3)CC2)cn1` [Example A117]: the Ki in test [1] (setting [6]) is 9.91 nM; in test [2] (setting [7]), 0.96 nM; in test [3] (setting [8]), above 10000 nM; in test [4] (setting [9]), above 10000 nM; in test [5] (setting [10]), 2.8 nM.
On to `CN(CC1CCCCC1)C(=O)CCCC1CCN(S(=O)(=O)C2(C(=O)NO)CCOCC2)CC1` [Example A111], for which the inhibition constant Ki in test [1] (setting [6]) was 364 nM; in test [2] (setting [7]) it was 1710 nM; in test [3] (setting [8]), above 10000 nM; in test [4] (setting [9]), above 10000 nM; in test [5] (setting [10]), 9.09 nM.
Take `O=C(CCCCC1CCN(S(=O)(=O)C2(C(=O)NO)CCOCC2)CC1)N1CCCC1` [Example A97]: the inhibitory constant (Ki) in test [1] (setting [6]) is 135 nM; in test [2] (setting [7]), 592 nM; in test [3] (setting [8]), 496 nM; in test [4] (setting [9]), above 10000 nM; in test [5] (setting [10]) it was 1.63 nM.
Taken in the same sequence, the figures for `O=C(NO)C1(S(=O)(=O)N2CCC(c3cnc(OCC4CC4)cn3)CC2)CCOCC1` [Example A151] were 1.34 nM, 0.72 nM, above 10000 nM, 3100 nM and 1.53 nM.
Regarding `CC(=O)OCCCC#Cc1ccc(C2CCN(S(=O)(=O)C3(C(=O)NO)CCOCC3)CC2)nc1` [Example A135], the Ki is 0.31 nM in test [1] (setting [6]); 0.48 nM in test [2] (setting [7]); 2620 nM in test [3] (setting [8]); 609 nM in test [4] (setting [9]); 0.28 nM in test [5] (setting [10]).
Taken in the same sequence, the figures for `CN(Cc1ccco1)C(=O)CCCCC1CCN(S(=O)(=O)C2(C(=O)NO)CCOCC2)CC1` [Example A99] were 50.8 nM, 241 nM, 356 nM, above 10000 nM and 0.79 nM.
Taken in the same sequence, the figures for `O=C(NO)C1(S(=O)(=O)N2CCC(c3ccc(-c4nccs4)cn3)CC2)CCOCC1` [Example A200] were 8.83 nM, 6.77 nM, above 10000 nM, above 10000 nM and 6.77 nM.
